Results reported in patent US20050267055A1, “Agent for improvement of glucose tolerance” (USE-TECHNO CORPORATION, priority 2003, published 2005).

Assay: Glucose tolerance test in a dog after corosolic acid administration
Type: in vivo
Conditions: dog (beagle), 20 mg/kg of body weight corosolic acid single administration; 75 g grape sugar oral load; tests up to 28 days after administration vs 60 days before
Description: (Glucose Tolerance Improving Effect of Corosolic Acid Administration in a Dog)
A dog (beagle) was used as the test animal. 20 mg/kg of body weight of purified corosolic acid extracted from banaba leaves was administered to the animal, and the glucose tolerance improvement effect was evaluated.
The glucose tolerance was evaluated by performing glucose tolerance tests according to the procedure described in (1)-(3) below. A glucose tolerance test was performed 60 days before corosolic acid administration, immediately after corosolic acid administration, and at 7 days, 14 days, 21 days and 28 days after corosolic acid administration. At time points other than immediately after corosolic acid administration, the glucose tolerance test was performed immediately after the same dose of D-sorbitol was orally administered as a placebo instead of corosolic acid. • (1) 75 g of grape sugar is administered orally to the dog. • (2) Blood is collected from the dog's vein at 0 minute, 30 minutes, 60 minutes, 90 minutes, 120 minutes, 180 minutes and 240 minutes after grape sugar administration, and the blood glucose level of the collected blood is measured using GLUTEST SENSOR (trade name, manufactured by SANWA KAKAGU KENKYUSHO CO.,LTD). • (3) The total of 7 blood glucose levels measured above in (2) is represented by ΣBG [mg/dl].

C[C@H]1[C@H](C)CC[C@]2(C(=O)O)CC[C@]3(C)C(=CC[C@@H]4[C@@]5(C)C[C@@H](O)[C@H](O)C(C)(C)[C@@H]5CC[C@]43C)[C@H]12 [corosolic acid]
ΣBG (total of 7 blood glucose levels in glucose tolerance test): lower values for 28 days after corosolic acid adminisration than before corosolic acid adminisration
